Assay results taken from publication PMC8955734, “4-Arylthiosemicarbazide Derivatives as Toxoplasmic Aromatic Amino Acid Hydroxylase Inhibitors and Anti-inflammatory Agents” (International Journal of Molecular Sciences, 2022).

T1: AAH1 (toxoplasmic aromatic amino acid hydroxylase 1), catalytic domain (Toxoplasma gondii, UniProt S8G872)
T1 construct: catalytic domain, pET-45b (His-tag), expressed in E. coli BL21 GOLD (DE3) pLysS, cobalt resin
T1 sequence (S8G872 1-390 limits assumed): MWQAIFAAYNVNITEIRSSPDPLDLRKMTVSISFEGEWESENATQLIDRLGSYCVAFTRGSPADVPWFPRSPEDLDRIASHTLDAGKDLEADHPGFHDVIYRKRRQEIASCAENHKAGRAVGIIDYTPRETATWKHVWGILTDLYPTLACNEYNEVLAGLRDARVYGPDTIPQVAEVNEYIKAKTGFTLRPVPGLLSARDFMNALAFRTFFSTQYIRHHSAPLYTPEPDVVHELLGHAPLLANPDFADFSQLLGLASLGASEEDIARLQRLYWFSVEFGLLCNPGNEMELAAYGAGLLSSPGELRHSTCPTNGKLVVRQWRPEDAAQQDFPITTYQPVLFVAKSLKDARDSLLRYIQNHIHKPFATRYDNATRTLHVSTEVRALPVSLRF

T2: AAH2 (toxoplasmic aromatic amino acid hydroxylase 2), catalytic domain (Toxoplasma gondii, UniProt S8FBW5)
T2 construct: catalytic domain, pET-45b (His-tag), expressed in E. coli BL21 GOLD (DE3) pLysS, cobalt resin
T2 sequence (S8FBW5 156-565): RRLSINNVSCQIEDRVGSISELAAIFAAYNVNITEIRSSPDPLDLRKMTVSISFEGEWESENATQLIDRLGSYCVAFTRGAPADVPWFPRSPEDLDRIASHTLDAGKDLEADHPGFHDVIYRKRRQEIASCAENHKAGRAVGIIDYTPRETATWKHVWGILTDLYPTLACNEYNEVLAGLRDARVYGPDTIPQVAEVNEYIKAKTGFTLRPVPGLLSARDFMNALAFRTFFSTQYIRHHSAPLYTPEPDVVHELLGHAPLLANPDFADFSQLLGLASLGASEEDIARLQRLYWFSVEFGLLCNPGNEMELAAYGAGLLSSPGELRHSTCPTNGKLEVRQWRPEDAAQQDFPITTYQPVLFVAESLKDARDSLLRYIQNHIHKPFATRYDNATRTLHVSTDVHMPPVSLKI

B1: AAH2 (toxoplasmic aromatic amino acid hydroxylase 2), catalytic domain (Toxoplasma gondii ME49) (protein)
chain: T2 sequence (S8FBW5 156-565)
notes: catalytic domain, pET-45b (His-tag), expressed in E. coli BL21 GOLD (DE3) pLysS, cobalt resin
B2: AAH1 (toxoplasmic aromatic amino acid hydroxylase 1), catalytic domain (Toxoplasma gondii ME49) (protein)
chain: T1 sequence (S8G872 1-390 limits assumed)
notes: as for B1

Columns and labels:
[1] = biological target: T1, AAH1 (toxoplasmic aromatic amino acid hydroxylase 1), catalytic domain; assay: DARTS (Pronase protection, Western blot); type: binding; details: 10 µM compound, and dose-dependent; room temperature
[2] = biological target: T1, AAH1 (toxoplasmic aromatic amino acid hydroxylase 1), catalytic domain; assay: coupled NADH oxidation assay (dihydropteridine reductase), […] nm; fit to competitive inhibition equation; type: biochemical; details: read-out: KI ^c
[3] = biological target: T2, AAH2 (toxoplasmic aromatic amino acid hydroxylase 2), catalytic domain; assay: as above; type: biochemical; details: read-out: KI ^c
[4] = substrate: N[C@@H](Cc1ccc(O)cc1)C(=O)O; assay: purified protein; type: biochemical, Toxoplasma gondii; details: no inhibitor, 500 µM (6R)-BH4, 500 µM NADH, 10 µM ferrous ammonium sulfate, pH 7.5, 32 °C

Molecule	DARTS (Pronase protection, Western blot) [1]	Ki [2] [nM]	Ki [3] [nM]	Km [4] [µM]
Cc1nc[nH]c1C(=O)NNC(=S)Nc1ccc([N+](=O)[O-])cc1 [2a]	Proteolysis of AAH1 by Pronase was clearly inhibited by the presence of 2a and 6a	1490	3690	
Cc1nc[nH]c1C(=O)NNC(=S)Nc1cccc(I)c1 [6a]	Proteolysis of AAH1 by Pronase was clearly inhibited by the presence of 2a and 6a	1260	3230	
B1				71
B2				30
